# Tests used:
# human PRMT8 = human PRMT8 (Homo sapiens, UniProt Q9NR22); test: PRMT8 Biochemical Assay (3H-SAM Flashplate, peptide substrate); conditions: single experiment or average of multiple experiments
# Method in brief: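 Methylation of a biotin-tagged histone H4 peptide (residues 31-45) by recombinant PRMT8 was measured as 3H transfer from 3H-SAM, after a 30 min room-temperature compound preincubation in Bicine buffer pH 7.6. Reactions were quenched with unlabelled SAM to 400 uM final, then bound counts were read by streptavidin Flashplate. IC50 came from a Hill fit of % inhibition relative to max and SAH min controls.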
# human PRMT6 = target: T1, human PRMT6 (Homo sapiens, UniProt Q96LA8); test: PRMT6 Biochemical Assay (3H-SAM Flashplate, peptide substrate); conditions: Biochemical IC50 PRMT6, single experiment or average of multiple experiments
# T1 construct: Flag-PRMT6-His; made in house; host or cells: HEK 293F cells (BacMam baculovirus)
# Method in brief: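 Methylation of a biotin-tagged H4 (36-50) peptide by ³H-SAM was quantified by streptavidin Flashplate capture and scintillation counts (dpm/cpm). Before SAM/peptide addition, Flag-PRMT6-His was preincubated with compound for 30 min at room temperature in Bicine buffer, pH 7.6.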
# T1 sequence (Q96LA8 with tags, fused parts or gaps): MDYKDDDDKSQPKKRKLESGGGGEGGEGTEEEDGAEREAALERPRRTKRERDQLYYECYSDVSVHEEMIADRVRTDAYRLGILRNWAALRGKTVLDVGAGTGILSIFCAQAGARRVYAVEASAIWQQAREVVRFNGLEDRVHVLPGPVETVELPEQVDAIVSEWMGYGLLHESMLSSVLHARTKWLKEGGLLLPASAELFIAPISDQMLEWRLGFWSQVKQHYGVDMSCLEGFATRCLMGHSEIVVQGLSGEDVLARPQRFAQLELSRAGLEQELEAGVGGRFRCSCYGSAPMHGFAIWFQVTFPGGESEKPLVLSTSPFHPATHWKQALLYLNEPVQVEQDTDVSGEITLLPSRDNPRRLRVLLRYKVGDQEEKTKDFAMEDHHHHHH
# human PRMT8, sequence (Q9NR22 whole entry, the tested form may be a part): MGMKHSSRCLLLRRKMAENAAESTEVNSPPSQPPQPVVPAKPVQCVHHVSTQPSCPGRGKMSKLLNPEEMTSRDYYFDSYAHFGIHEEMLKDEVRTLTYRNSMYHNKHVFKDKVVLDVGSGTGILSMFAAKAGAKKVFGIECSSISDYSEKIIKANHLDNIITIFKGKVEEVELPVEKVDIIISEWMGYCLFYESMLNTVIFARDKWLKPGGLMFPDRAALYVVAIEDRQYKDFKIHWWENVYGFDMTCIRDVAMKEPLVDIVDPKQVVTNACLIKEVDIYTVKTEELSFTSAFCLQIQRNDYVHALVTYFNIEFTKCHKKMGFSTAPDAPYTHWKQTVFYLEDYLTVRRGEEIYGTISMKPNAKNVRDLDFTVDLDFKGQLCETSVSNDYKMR
IC50 (human PRMT8) [nM],IC50 (human PRMT6) [nM],Structure (SMILES)
2990,29.5,CCC(=O)N1CCN(c2ccc(-c3n[nH]cc3CN(C)CCN)cc2)CC1 [Compound 189]
845,247,CC(C)CN1C(=O)COc2cc(-c3n[nH]cc3CN(C)CCN)ccc21 [Compound 193]
1120,12.5,COc1ccc(-c2n[nH]cc2CN(C)CCN)c(Cl)c1 [Compound 146]
167,60,CN(CCN)Cc1n[nH]cc1-c1ccc(C2CCOCC2)cc1 [Compound 145]
977,22.3,COc1ccc(-c2n[nH]cc2CN(C)CCN)c(C)c1 [Compound 155]

Structure (SMILES),IC50 (human PRMT8) [nM],IC50 (human PRMT6) [nM]
CNCCN(C)Cc1cn[nH]c1-c1ccc(C#N)cc1 [Compound 17],89.1,12.8
